One experiment addresses PIM-1 (Homo sapiens (Human), UniProt P11309). The experiment can be described thus: Luminometric kinase assay for PIM1 kinase (Kinase-Glo). In kind it is biochemical. As to conditions: 1 μM ATP, 25 min at RT. Here is the method: Kinase assay was performed using luminescent Kinase-Glo® (Promega) system. The Kinase-Glo® Luminescent Kinase Assay Platform provides a homogeneous, high-throughput screening method for measuring kinase activity by quantifying the amount of ATP remaining in solution following a kinase reaction. The luminescent signal is correlated with the amount of ATP present and is inversely correlated with the kinase activity. Appropriate amounts of both kinase and substrate were mixed in 96-well, white wall plate in the reaction buffer (8 mM MOPS/NaOH, pH7.0, 0.2 mM EDTA, 2 mM MgCl2). Tested compounds were diluted in DMSO and serial dilutions starting with 1 μM were added to the palates. Reaction was initiated by adding 1 μM of ATP solution and conducted for 25 min. at RT. Luminescent signal was detected by adding Kinase-Glo® reagent and measured using a microplate spectrophotometer (Synergy 2 multi-mode microplate reader (BioTek)). IC50 values were obtained by fitting sigmoidal dose-response curve (variable slope) using GraphPad Prism software.

Experiment [1] has as its system human myelomonocytic, biphenotypic leukemia MV4-11 cells. The experiment can be described thus: Growth inhibition test (MTS) on MV4-11 cells. Type of experiment: cell-based. As to conditions: Homo sapiens, MV4-11, 72 hours, read-out: MV-4-11 ED50. How it is done: (§1) Ten thousand cells of human myelomonocytic, biphenotypic leukemia MV4-11 were inoculated into each well of a 96-well microplate (manufactured by Corning Corp.) using Iscove's MDM medium (culture medium) containing 10% fetal calf serum (FCS). Next day, a dimethyl sulfoxide (DMSO) solution of each test compound prepared in a concentration of 10 mmol/L was further diluted with culture medium to the desired concentrations (0.1, 0.5, 1, 2.5, 5 and 10 micromol/L), and the diluted solution was added to each well. The individual wells were further cultured in 5% carbon dioxide at 37° C. for 72 hours. After completion of the culture, 10 μl MTS (3-(4,5-Dimethyl-2-thiazolyl)-5-(carboxymethoxyphenyl)-2-(4-sulfophenyl)-2H-tetrazolium, inner salt assay (CellTiter96® AQueous One Solution Cell Proliferation Assay, Promega) was added to each well, and culturing was performed in 5% carbon dioxide at 37° C. for 2 hours. Using a microplate spectrophotometer (Synergy 2 multi-mode microplate reader (BioTek)), the absorbance of each well was measured at 490 nm. The value for cells not incorporated with a test compound was designated as 100%. By comparing these values with the absorbance difference obtained at the well in which each test compound was added, the cell viability (% viability) after treatment with the test compound was calculated.

Experiment [2] relates to human hepatoma HepG2 cells. The experiment can be described thus: Growth inhibition test (MTS) on HepG2 cells. Type of experiment: cell-based. As to conditions: 72 hours, read-out: HepG2 ED50. Here is the method: as §1, with “Two” for “Ten”, “hepatoma HepG2” for “myelomonocytic, biphenotypic leukemia MV4-11”, “DMEM” for “Iscove's MDM”
In experiment [3] the test system is human prostate adenocarcinoma PC3 cells. The experiment can be described thus: Growth inhibition test (MTS) on PC3 cells. Type of experiment: cell-based. As to conditions: Homo sapiens, PC-3, 72 hours, read-out: PC-3 ED50.
Description: as §1, with “Two” for “Ten”, “prostate adenocarcinoma PC3” for “myelomonocytic, biphenotypic leukemia MV4-11”, “Corp.), and” for “Corp.)”, “F12K (Ham's F12:[…] 1:1)” for “Iscove's MDM”

Sequence of PIM-1 (P11309 whole entry): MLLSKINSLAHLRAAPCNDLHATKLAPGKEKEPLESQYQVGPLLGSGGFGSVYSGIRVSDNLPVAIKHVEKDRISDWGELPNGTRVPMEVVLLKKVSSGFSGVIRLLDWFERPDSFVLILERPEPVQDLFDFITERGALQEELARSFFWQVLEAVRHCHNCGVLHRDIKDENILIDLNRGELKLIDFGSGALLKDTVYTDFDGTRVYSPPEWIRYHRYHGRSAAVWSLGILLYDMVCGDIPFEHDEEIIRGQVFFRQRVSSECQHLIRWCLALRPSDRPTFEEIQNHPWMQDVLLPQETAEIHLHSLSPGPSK

As for `N[C@@H]1CC=CC[C@H]1Nc1nc2c(Br)c(Br)c(Br)c(Br)c2[nH]1` (relative stereo) [Compound 331, Trans N1-(4,5,6,7-tetrabromo-1H-benzo[d]imidazol-2-yl)cyclohex-4-ene-1,2-diamine], the results for the IC50 (on PIM-1; in experiment [1]) were 14.8 nM and 1360 nM, respectively. Consider `Brc1c(Br)c(Br)c2[nH]c(N3CCCC3)nc2c1Br` [Compound 18, 4,5,6,7-tetrabromo-2-(pyrrolidin-1-yl)-1H-benzo[d]imidazole], for which the IC50 at PIM-1 stood at 13.3 nM; in experiment [1], 7680 nM. Regarding `Brc1c(Br)c(Br)c2[nH]c(Nc3ccncc3)nc2c1Br` [Compound 28, 4,5,6,7-tetrabromo-N-(pyridin-4-yl)-1H-benzo[d]imidazol-2-amine], on PIM-1, the IC50 amounted to 37 nM. `Brc1c(Br)c(Br)c2[nH]c(NCCCN3CCCCC3)nc2c1Br` [Compound 59, 4,5,6,7-tetrabromo-N-(3-(piperidin-1-yl)propyl)-1H-benzo[d]imidazol-2-amine]: the IC50 came out at 3600 nM in experiment [2] and 50.8 nM at PIM-1. `NCCCCNc1nc2c(Br)c(Br)c(Br)c(Br)c2[nH]1` [Compound 61, N-(4-aminobutyl)-4,5,6,7-tetrabromo-1H-benzo[d]imidazol-2-amine]: the IC50 was 7350 nM in experiment [2], 8.85 nM on PIM-1 and 8330 nM in experiment [3].

With `Brc1c(Br)c(Br)c2[nH]c(NCC3CCNCC3)nc2c1Br` [Compound 67, 4,5,6,7-tetrabromo-N-((piperidin-4-yl)methyl)-1H-benzo[d]imidazol-2-amine], the IC50 on PIM-1 was 65.2 nM. For the molecule `Brc1c(Br)c(Br)c2[nH]c(Nc3ccccc3)nc2c1Br` [Compound 79, 4,5,6,7-tetrabromo-N-phenyl-1H-benzo[d]imidazol-2-amine], the IC50 in experiment [2] came out at 6520 nM; on PIM-1, 68.2 nM.

Regarding `Brc1c(Br)c(Br)c2[nH]c(NCc3ccccc3)nc2c1Br` [Compound 82, N-benzyl-4,5,6,7-tetrabromo-1H-benzo[d]imidazol-2-amine], the IC50 on PIM-1 stood at 200 nM. With `Nc1ccc(Nc2nc3c(Br)c(Br)c(Br)c(Br)c3[nH]2)cc1` [Compound 86, N1-(4,5,6,7-tetrabromo-1H-benzo[d]imidazol-2-yl)benzene-1,4-diamine], the IC50 at PIM-1 was determined as 66 nM. As for `NCC(O)CNc1nc2c(Br)c(Br)c(Br)c(Br)c2[nH]1` (stereo not drawn) [Compound 90, 1-(4,5,6,7-tetrabromo-1H-benzo[d]imidazol-2-ylamino)-3-aminopropan-2-ol], the IC50 in experiment [2] stood at 3980 nM; at PIM-1 it was 13.1 nM; in experiment [3], 6520 nM.

Turning to `CN(C)CCN(Cc1ccccc1)c1nc2c(Br)c(Br)c(Br)c(Br)c2n1Cc1ccccc1` [Compound 95, N,1-dibenzyl-4,5,6,7-tetrabromo-N-(2-(dimethylamino)ethyl)-1H-benzo[d]imidazol-2-amine], the IC50 on PIM-1 came to 75.7 nM; in experiment [1], 7610 nM.

Take `CN(Cc1ccccc1)c1nc2c(Br)c(Br)c(Br)c(Br)c2[nH]1` [Compound 117, N-benzyl-4,5,6,7-tetrabromo-N-methyl-1H-benzo[d]imidazol-2-amine]: the IC50 on PIM-1 was determined as 85.6 nM; in experiment [1] it was 9400 nM. Regarding `Brc1c(Br)c(Br)c2[nH]c(NCCc3ccccn3)nc2c1Br` [Compound 128, 4,5,6,7-tetrabromo-N-(2-(pyridin-2-yl)ethyl)-1H-benzo[d]imidazol-2-amine], the figures for the IC50 (on PIM-1; in experiment [1]) were 71.3 nM and 3830 nM, respectively. Turning to `Cc1c(Nc2nc3c(Br)c(Br)c(Br)c(Br)c3[nH]2)cccc1-c1nncn1C` [Compound 248, 4,5,6,7-tetrabromo-N-(2-methyl-3-(4-methyl-4H-1,2,4-triazol-3-yl)phenyl)-1H-benzo[d]imidazol-2-amine], the IC50 at PIM-1 was 48.9 nM. Same read-out and setting: the figure for `Cc1nccn1CC1CCCN(c2nc3c(Br)c(Br)c(Br)c(Br)c3[nH]2)C1` (stereo not drawn) [Compound 262, 4,5,6,7-tetrabromo-2-(3-((2-methyl-1H-imidazol-1-yl)methyl)piperidin-1-yl)-1H-benzo[d]imidazole] is 61.4 nM.

`Brc1c(Br)c(Br)c2[nH]c(N3CCCC(CN4CCN(c5ccccn5)CC4)C3)nc2c1Br` (stereo not drawn) [Compound 266, 4,5,6,7-tetrabromo-2-(3-((4-(pyridin-2-yl)piperazin-1-yl)methyl)piperidin-1-yl)-1H-benzo[d]imidazole]: the IC50 in experiment [2] came out at 2480 nM; on PIM-1 it was 294 nM; in experiment [1], 2550 nM.

Regarding `Oc1ncc(Nc2nc3c(Br)c(Br)c(Br)c(Br)c3[nH]2)c(O)n1` [Compound 303, 5-(4,5,6,7-tetrabromo-1H-benzo[d]imidazol-2-ylamino)pyrimidine-2,4-diol], on PIM-1, the IC50 is 128 nM.

Consider `OC1CCCCC1Nc1nc2c(Br)c(Br)c(Br)c(Br)c2[nH]1` (stereo not drawn) [Compound 334, 2-(4,5,6,7-tetrabromo-1H-benzo[d]imidazol-2-ylamino)cyclohexanol], for which the IC50 on PIM-1 stood at 14.1 nM; in experiment [1], 5340 nM.

With `CN(c1ccccc1)c1nc2c(Br)c(Br)c(Br)c(Br)c2[nH]1` [Compound 342, 4,5,6,7-tetrabromo-N-methyl-N-phenyl-1H-benzo[d]imidazol-2-amine], at PIM-1, the IC50 came to 28.6 nM.

Consider `CN(C)CCN1CCN(c2nc3c(Br)c(Br)c(Br)c(Br)c3[nH]2)CC1` [Compound 343, 2-(4-(4,5,6,7-tetrabromo-1H-benzo[d]imidazol-2-yl)piperazin-1-yl)-N,N-dimethylethanamine], for which the IC50 at PIM-1 was determined as 36.8 nM. `Brc1c(Br)c(Br)c2[nH]c(N3CCNc4ccccc43)nc2c1Br` [Compound 367, 1-(4,5,6,7-tetrabromo-1H-benzo[d]imidazol-2-yl)-1,2′,3,4-tetrahydroquinoxaline]: the IC50 turned out to be 39.5 nM at PIM-1 and 3770 nM in experiment [1].

The values above are taken from patent publication US8604217B2, “Compound, a process for its preparation, a pharmaceutical composition, use of a compound, a method for modulating or regulating serine/threonine kinases and a serine/threonine kinases modulating agent” (Selvita S.A., priority 2009, dated 2013).
